Experiments:
Log D = type: physicochemical; details: pH 7.4; read-out: Log D measured at pH 7.4
Text: log D: distribution co-efficient; lipophilicity measurement.

TOM20 ubiquitylation = test: TOM20-ubiquitylation assay; type: cell-based, Human; details: antimycin A/oligomycin mitophagy trigger; n = 5, (0.015-0.075) printed below
Text: Human cell lines can be challenged with mitochondrial depolarizing agents (ionophores (eg. CCCP, valinomycin), mitochondrial complex inhibitors (oligomycin, antimycin A)) to induce ubiquitylation of TOM20, which is then further promoted in the presence of USP30 inhibitors. TOM20 ubiquitylation is subsequently assessed through western blotting of the cell lysates, with TOM20 ubiquitylation adduct detection possible due to an 8 kDa molecule weight increase for each molecule of ubiquitin added, resulting in laddering of a TOM20 immunoreactive band. TOM20-ubiquitylation levels can be quantified using chemiluminescence densitometry of laddered immunoreactive bands.

Hepatocyte Cl mouse = type: in vitro ADME; details: mouse hepatocytes
Procedure: Hep Cl mouse: in vitro hepatocyte clearance in mouse cells.
Clu: in vitro clearance. Clu as defined here is the scaled clearance, in turn calculated from the intrinsic clearance. The intrinsic clearance is the predicted clearance due to hepatic metabolic reactions, determined from incubation of a compound in a hepatocyte preparation.

[1] = Brain homogenate free fraction, equilibrium dialysis; type: in vitro ADME; details: mouse brain tissue homogenate; read-out: Binding Mouse Brain fu, br
Text: Brain fu,br: The free fraction of a compound in brain tissue homogenate preparation determined by in vitro equilibrium dialysis. It is understood that only unbound (free) compound is capable of engaging with the target.

[2] = test system: Salmonella typhimurium strains TA98, TA100, TA1535 and TA97a and the Escherichia Coli strain WP2 uvrA pKM101; test: Bacterial reverse mutation assay (Ames); details: up to 100 μg/well (equivalent to 5000 μg/plate), with and without metabolic activation
Procedure: The bacterial reverse mutation assay (Ames Test) may be used to evaluate the mutagenic properties of compounds of the invention, commonly by using the bacterial strain Salmonella typhimurium, which is mutant for the biosynthesis of the amino acid histidine.
Example 1 was assessed in the bacterial reverse mutation assay (Ames) and in vitro micronucleus assay. All in vitro tests were conducted with and without exogenous metabolic activation using concentrations up to those limited by cytotoxicity or insolubility.

C[C@@H]1C[C@@H](NC(=O)c2nnc(-c3cccc(C#N)c3)o2)CN1C#N [Example 1, N-((3R,5R)-1-Cyano-5-methylpyrrolidin-3-yl)-5-(3-cyanophenyl)-1,3,4-oxadiazole-2-carboxamide]
logD (Log D): 1.3
TOM20-Ub 1.5-fold gain EC1.5x (μM) (TOM20 ubiquitylation): 0.035 (n = 5) μM
Hepatocyte Cl mouse scaled Clu (Hepatocyte Cl mouse): 45 mL/min/kg
fraction unbound [1]: 0.26
induction of mutations, reverse mutation assay [2]: did not induce mutations

Reference: patent US20220315572A1, “SUBSTITUTED CYANOPYRROLIDINES WITH ACTIVITY AS USP30 INHIBITORS” (MISSION THERAPEUTICS LIMITED, priority 2019, published 2022)
